# Data from patent US11207310B2 (PRILENIA NEUROTHERAPEUTICS LTD., priority 2016, dated 2021).
# Like-named read-outs stand apart in the source and are kept apart here.
# Key:
# patients with HD [1] = test system: patients with HD
# Description: The independence scale of the UHDRS is a rating scale where the patient's degree of independence was given in percentage, from 10% (tube fed, total bed care) to 100% (no special care needed). […] Patients with a UHDRS-IS score >90% at the screening visit were not eligible for the study.
# It is a rating scale where the patient's degree of independence is given in percentage, from 10% (tube fed, total bed care) to 100% (no special care needed). […] The scale was assessed at screening, baseline, weeks 4, 12, 20, 26/Early Termination, 28 and 52/Early Termination.
# patients with HD [2] = details: for Wk52 Δ to placebo: Timed Up and Go Test: HD1 and HD2 patients, week 52
# Text: The TUG is a simple test used to assess a person's mobility and requires both static and dynamic balance. It uses the time that a person takes to rise from a chair, walk 3 meters, turn around, walk back to the chair, and sit down. During the test, the person is expected to wear their regular footwear and use any mobility aids that they would normally require. The TUG is used frequently in the elderly population, as it is easy to administer and can generally be completed by the majority of older adults.
compound,measurement,setting,value
"CCCN1CCC(c2cccc(S(C)(=O)=O)c2)CC1 [pridopidine, 4-[3-(methylsulfonyl)phenyl]-1-propyl-piperidine]","Change from baseline in UHDRS Independence Scale, Δ to placebo","patients with HD [1]; 45 mg bid, Week 26, ALL",1.79
same,"UHDRS Independence Scale, change from baseline, Δ to placebo","patients with HD [1]; 45 mg bid, Week 26, BL TFC<7, p value 0.8796",0.3
same,"UHDRS Independence Scale, change from baseline, Wk 26 Δ to placebo","patients with HD [1]; 45 mg bid, Week 26, BL TFC≥7, p value 0.0128",2.22
same,"Change from baseline in UHDRS Independence Scale, Δ to placebo","patients with HD [1]; 45 mg bid, Week 26, Stage 1 BL TFC 11-13",4.94
same,"Change from baseline in UHDRS Independence Scale, Δ to placebo","patients with HD [1]; 45 mg bid, Week 52, ALL",0.86
same,"UHDRS Independence Scale, change from baseline, Δ to placebo","patients with HD [1]; 45 mg bid, Week 52, BL TFC<7, p value 0.5799",−1.85
same,"UHDRS Independence Scale, change from baseline, Δ to placebo","patients with HD [1]; 45 mg bid, Week 52, BL TFC≥7, p value 0.1047",1.99
same,"Change from baseline in UHDRS Independence Scale, Δ to placebo","patients with HD [1]; 45 mg bid, Week 52, Stage 1 BL TFC 11-13",3.05
same,"Change from baseline in UHDRS Independence Scale, Δ to placebo","patients with HD [1]; 67.5 mg bid, Week 26, ALL",0.3
same,"UHDRS Independence Scale, change from baseline, Δ to placebo","patients with HD [1]; 67.5 mg bid, Week 26, BL TFC<7, p value 0.8027",−0.44
same,"UHDRS Independence Scale, change from baseline, Wk 26 Δ to placebo","patients with HD [1]; 67.5 mg bid, Week 26, BL TFC≥7, p value 0.2755",0.99
same,"Change from baseline in UHDRS Independence Scale, Δ to placebo","patients with HD [1]; 67.5 mg bid, Week 26, Stage 1 BL TFC 11-13",2.27
same,"Change from baseline in UHDRS Independence Scale, Δ to placebo","patients with HD [1]; 67.5 mg bid, Week 52, ALL",0.25
same,"UHDRS Independence Scale, change from baseline, Δ to placebo","patients with HD [1]; 67.5 mg bid, Week 52, BL TFC<7, p value 0.2415",−3.46
same,"UHDRS Independence Scale, change from baseline, Δ to placebo","patients with HD [1]; 67.5 mg bid, Week 52, BL TFC≥7, p value 0.0788",2.22
same,"Change from baseline in UHDRS Independence Scale, Δ to placebo","patients with HD [1]; 67.5 mg bid, Week 52, Stage 1 BL TFC 11-13",0.91
same,"Change from baseline in UHDRS Independence Scale, Δ to placebo","patients with HD [1]; 90 mg bid, Week 26, ALL",0.78
same,"UHDRS Independence Scale, change from baseline, Δ to placebo","patients with HD [1]; 90 mg bid, Week 26, BL TFC<7, p value 0.9116",0.2
same,"UHDRS Independence Scale, change from baseline, Wk 26 Δ to placebo","patients with HD [1]; 90 mg bid, Week 26, BL TFC≥7, p value 0.0949",1.48
same,"Change from baseline in UHDRS Independence Scale, Δ to placebo","patients with HD [1]; 90 mg bid, Week 26, Stage 1 BL TFC 11-13",1.73
same,"Change from baseline in UHDRS Independence Scale, Δ to placebo","patients with HD [1]; 90 mg bid, Week 52, ALL",−0.07
same,"UHDRS Independence Scale, change from baseline, Δ to placebo","patients with HD [1]; 90 mg bid, Week 52, BL TFC<7, p value 0.0779",−5.25
same,"UHDRS Independence Scale, change from baseline, Δ to placebo","patients with HD [1]; 90 mg bid, Week 52, BL TFC≥7, p value 0.0228",2.79
same,"Change from baseline in UHDRS Independence Scale, Δ to placebo","patients with HD [1]; 90 mg bid, Week 52, Stage 1 BL TFC 11-13",1.16
same,"Change from baseline in UHDRS Independence Scale, Δ to placebo","patients with HD [1]; 112.5 mg bid, Week 26, ALL",1.41
same,"UHDRS Independence Scale, change from baseline, Δ to placebo","patients with HD [1]; 112.5 mg bid, Week 26, BL TFC<7, p value 0.3578",1.65
same,"UHDRS Independence Scale, change from baseline, Wk 26 Δ to placebo","patients with HD [1]; 112.5 mg bid, Week 26, BL TFC≥7, p value 0.0919",1.51
same,"Change from baseline in UHDRS Independence Scale, Δ to placebo","patients with HD [1]; 112.5 mg bid, Week 26, Stage 1 BL TFC 11-13",2.38
same,"Change from baseline in UHDRS Independence Scale, Δ to placebo","patients with HD [1]; 112.5 mg bid, Week 52, ALL",0.18
same,"UHDRS Independence Scale, change from baseline, Δ to placebo","patients with HD [1]; 112.5 mg bid, Week 52, BL TFC<7, p value 0.8613",−0.52
same,"UHDRS Independence Scale, change from baseline, Δ to placebo","patients with HD [1]; 112.5 mg bid, Week 52, BL TFC≥7, p value 0.7301",0.44
same,"Change from baseline in UHDRS Independence Scale, Δ to placebo","patients with HD [1]; 112.5 mg bid, Week 52, Stage 1 BL TFC 11-13",−1.61
same,change from baseline in the UHDRS-IS,"patients with HD [1]; any treatment group, week 52",not statistically significant in any treatment group
same,Wk52 Δ to placebo: Timed Up and Go Test,patients with HD [2]; 45 mg bid,-1.61 s
same,"Timed Up and Go Test, change from baseline, Δ to placebo","patients with HD [2]; 45 mg bid, Week 26, ALL, p value 0.1765",-2.16 s
same,"Timed Up and Go Test, change from baseline, Δ to placebo","patients with HD [2]; 45 mg bid, Week 26, BL TFC<7, p value 0.9181",0.5 s
same,"Timed Up and Go Test, change from baseline, Δ to placebo","patients with HD [2]; 45 mg bid, Week 26, BL TFC≥7, p value 0.1397",-2.09 s
same,"Timed Up and Go Test, change from baseline, Δ to placebo","patients with HD [2]; 45 mg bid, Week 26, Stage 1 BL TFC 11-13, p value 0.0612",-6.98 s
same,"Timed Up and Go Test, change from baseline, Δ to placebo","patients with HD [2]; 45 mg bid, Week 52, Stage 1 BL TFC 11-13, p value 0.0627",-5.26 s
same,"Timed Up and Go Test, change from baseline, Δ to placebo","patients with HD [2]; 45 mg bid, Week 52, all patients, p value 0.0899",-1.49 s
same,Wk52 Δ to placebo: Timed Up and Go Test,patients with HD [2]; 67.5 mg bid,-1.64 s
same,"Timed Up and Go Test, change from baseline, Δ to placebo","patients with HD [2]; 67.5 mg bid, Week 26, ALL, p value 0.9571",-0.09 s
same,"Timed Up and Go Test, change from baseline, Δ to placebo","patients with HD [2]; 67.5 mg bid, Week 26, BL TFC<7, p value 0.1715",6.24 s
